Measurements reported in US20230312561A1, “SOLID FORMS OF (Z)-METHYL 3-(((4-(N-METHYL-2-(4-METHYLPIPERAZIN-1-YL)ACETAMIDO)PHENYL)AMINO)(PHENYL)METHYLENE)-2-OXO-2,3-DIHYDRO-1H-PYRROLO[2,3-B]PYRIDINE-6-CARBOXYLATE AND SALTS THEREOF” (Angion Biomedica Corp., priority 2020, published 2023).

Legend:
[1] = Drying studies of Compound 1 Hydrochloride (XRPD, TGA); assay type: physicochemical
Protocol: Compound 1 Hydrochloride Form A was then subjected to drying under various conditions.
Drying studies of Compound 1 Hydrochloride Form A (Type 1 Lot) were performed.
Variability in the drying profiles of different lots of Compound 1 Hydrochloride were noted, particularly with regards to the transition between Form A and Form C. The variable behavior appeared to depend upon the nature of the input Form A batch (e.g., how it was generated and then conditioned, if at all, prior to drying, and/or if excess hydrochloric acid was present).
Concentrated HCl (154 μL, 1 eqiuv) was added which clarified the suspension to a deep orange solution. The mixture was equilibrated for 30 minutes before cooling gradually to room temperature. A thin yellow suspension resulted. The solvent volume was reduced by 50% which thickened the suspension. The suspension was matured overnight, following which the solid was filtered to isolate the solids. The solid was air dried for ˜30 minutes giving a yellow solid (damp mass: 1.24 g; pH measured at 5.0). The XRPD pattern of the damp solid corresponded with Compound 1 Hydrochloride Form H. Analysis of the damp solid by DSC and TGA indicated a water content of 8.2%, which was fairly labile up ˜75° C.
Compound 1 Hydrochloride Form H was then subjected to a drying study under various conditions.
The solids were further subjected to prolonged drying.

[2] = Aqueous solubility of salt forms (25° C., 1, 4, 24 h); conditions: deionized water; for XRPD: isolated solids
Protocol: Aqueous solubility of certain salt forms was assessed. Each solid (100 mg) was charged into a crystallization tube. Deionized water (1 mL) was added to each tube to give a suspension. The mixtures were equilibrated at 25° C. for 24 hours with sampling after 1 and 4 hours' equilibration. Solids were isolated and XRPD analysis obtained.

[3] = Dry in vacuo at 25° C., T = 4 h
[4] = Dry in vacuo at 25° C., T = 96 h
[5] = Dry in vacuo at 45° C., T = 4 h
[6] = Dry in vacuo at 45° C., T = 96 h
[7] = Dry in vacuo at 70° C., T = 4 h
[8] = Dry in vacuo at 70° C., T = 96 h

COC(=O)c1ccc2c(c1)NC(=O)/C2=C(\Nc1ccc(N(C)C(=O)CN2CCN(C)CC2)cc1)c1ccccc1.Cl [Compound 1 Hydrochloride Form H]
TGA (%) [1, 3]: 0%
XRPD [1, 3]: Form F
XRPD ([1]; Dry in vacuo at 25° C., T = 24 h): Form F
TGA (%) [1, 4]: 0%
XRPD [1, 4]: Form F
XRPD ([1]; Dry in vacuo at 25° C., T = 120 h): Form F
TGA (%) [1, 5]: 0%
XRPD [1, 5]: Form F
XRPD ([1]; Dry in vacuo at 45° C., T = 24 h): Form F
TGA (%) [1, 6]: 0%
XRPD [1, 6]: Form F
XRPD ([1]; Dry in vacuo at 45° C., T = 120 h): Form F
TGA (%) [1, 7]: 0%
XRPD [1, 7]: Form F
XRPD ([1]; Dry in vacuo at 70° C., T = 24 h): Form F
TGA (%) [1, 8]: 0%
XRPD [1, 8]: Form F
XRPD ([1]; Dry in vacuo at 70° C., T = 120 h): Form F
TGA (%) ([1]; T = 0, before drying): 8.24%
XRPD ([1]; T = 0, before drying): Form H

COC(=O)c1ccc2c(c1)NC(=O)/C2=C(\Nc1ccc(N(C)C(=O)CN2CCN(C)CC2)cc1)c1ccccc1.Cl [HCl (Form A, Type 1 Lot)]
Solubility ([2]; t = 1 h): 70.37 mg/mL
pH ([2]; t = 1 h): 3.34
Solubility ([2]; t = 4 h): 50.54 mg/mL
Solubility ([2]; t = 24 h): 52.88 mg/mL
pH ([2]; t = 24 h): 3.28

COC(=O)c1ccc2c(c1)NC(=O)/C2=C(\Nc1ccc(N(C)C(=O)CN2CCN(C)CC2)cc1)c1ccccc1.Cl [HCl (Form A, Type 2 Lot)]
Solubility ([2]; t = 1 h): 46.11 mg/mL
pH ([2]; t = 1 h): 5.22
XRPD ([2]; t = 1 h): Form A
Solubility ([2]; t = 4 h): 43.78 mg/mL
XRPD ([2]; t = 4 h): Form A
Solubility ([2]; t = 24 h): 40.58 mg/mL
pH ([2]; t = 24 h): 5.25
XRPD ([2]; t = 24 h): Form A

Maleate
Solubility ([2]; t = 1 h): 12.50 mg/mL
pH ([2]; t = 1 h): 6.35
Solubility ([2]; t = 4 h): 12.39 mg/mL
Solubility ([2]; t = 24 h): 9.45 mg/mL
pH ([2]; t = 24 h): 6.40

Tosylate
Solubility ([2]; t = 1 h): 2.07 mg/mL
pH ([2]; t = 1 h): 6.46
Solubility ([2]; t = 4 h): 2.02 mg/mL
Solubility ([2]; t = 24 h): 2.39 mg/mL
pH ([2]; t = 24 h): 6.66
